Test system: 786-0 complex spheroids with HUVEC/MSC, growth % test/control
Assay: Anticancer human tumor 786-0 cell line growth inhibition [AhR];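 also: compound exposure lasted seven days before the read-out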
Details: for IC50: curve of first compound; for viability, T/C: stronger effect = lower value
Outline: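 Spheroids combined tumor cells with HUVEC endothelial cells and human MSCs as stroma. AhR antagonists were paired with standard or investigational drugs, each dosed in half-log steps down from near clinical Cmax, or from 10 microM where Cmax was unknown.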

[1] = second compound 0.1 µM, first compound 0.0316 µM
[2] = second compound 0.1 µM, first compound 0.1 µM
[3] = second compound 0.1 µM, first compound 0.316 µM
[4] = second compound 0.1 µM, first compound 1 µM
[5] = second compound 0.1 µM, first compound 3.16 µM
[6] = second compound 0.1 µM, first compound 10 µM
[7] = second compound 0.316 µM, first compound 0.0316 µM
[8] = second compound 0.316 µM, first compound 0.1 µM
[9] = second compound 0.316 µM, first compound 0.316 µM
[10] = second compound 0.316 µM, first compound 1 µM
[11] = second compound 0.316 µM, first compound 3.16 µM
[12] = second compound 0.316 µM, first compound 10 µM
[13] = second compound 1 µM, first compound 0.0316 µM
[14] = second compound 1 µM, first compound 0.1 µM
[15] = second compound 1 µM, first compound 0.316 µM
[16] = second compound 1 µM, first compound 1 µM
[17] = second compound 1 µM, first compound 3.16 µM
[18] = second compound 1 µM, first compound 10 µM
[19] = second compound 3.16 µM, first compound 0.0316 µM
[20] = second compound 3.16 µM, first compound 0.1 µM
[21] = second compound 3.16 µM, first compound 0.316 µM
[22] = second compound 3.16 µM, first compound 1 µM
[23] = second compound 3.16 µM, first compound 3.16 µM
[24] = second compound 3.16 µM, first compound 10 µM
[25] = second compound 10 µM, first compound 0.0316 µM
[26] = second compound 10 µM, first compound 0.1 µM
[27] = second compound 10 µM, first compound 0.316 µM
[28] = second compound 10 µM, first compound 1 µM
[29] = second compound 10 µM, first compound 3.16 µM
[30] = second compound 10 µM, first compound 10 µM

SMILES | IC50 (second compound 0.1 µM) [nM] | IC50 (second compound 0.316 µM) [nM] | IC50 (second compound 1 µM) [nM] | IC50 (second compound 3.16 µM) [nM] | IC50 (second compound 10 µM) [nM] | viability, T/C [1] [%] | viability, T/C [2] [%] | viability, T/C [3] [%] | viability, T/C [4] [%] | viability, T/C [5] [%] | viability, T/C [6] [%] | viability, T/C [7] [%] | viability, T/C [8] [%] | viability, T/C [9] [%] | viability, T/C [13] [%] | viability, T/C [14] [%] | viability, T/C [19] [%] | viability, T/C [20] [%] | viability, T/C [25] [%] | viability, T/C [26] [%] | further results
CC1(C)CCC(CN2CCN(c3ccc(C(=O)NS(=O)(=O)c4ccc(NCC5CCOCC5)c([N+](=O)[O-])c4)c(Oc4cnc5[nH]ccc5c4)c3)CC2)=C(c2ccc(Cl)cc2)C1 + Cc1cncc(-c2nc(NCCc3c[nH]c4ccccc34)c3ncn(C(C)C)c3n2)c1 | > 10000 | > 10000 | > 10000 | > 10000 | < 31.6 | 107 | 123 | 117 | 109 | 113 | 93.3 | 117 | 118 | 119 | 118 | 105 | 65.4 | 71.9 | 5.05 | 3.29 | viability, T/C [10]: 129%; viability, T/C [11]: 102%; viability, T/C [12]: 93.8%; viability, T/C [15]: 109%; viability, T/C [16]: 103%; viability, T/C [17]: 102%; viability, T/C [18]: 97.3%; viability, T/C [21]: 74.4%; viability, T/C [22]: 76.8%; viability, T/C [23]: 67.4%; viability, T/C [24]: 70.8%; viability, T/C [27]: 6.81%; viability, T/C [28]: 6.55%; viability, T/C [29]: 6.02%; viability, T/C [30]: 23.1%
Cn1ncnc1C1c2n[nH]c(=O)c3cc(F)cc(c23)NC1c1ccc(F)cc1 (stereo not given) + Cc1cncc(-c2nc(NCCc3c[nH]c4ccccc34)c3ncn(C(C)C)c3n2)c1 | > 100 | > 100 | > 100 | > 100 | < 0.316 | 120 | 115 |  |  |  |  | 111 | 116 |  | 105 | 119 | 72.8 | 80.4 | 17.4 | 21.4 | viability, T/C (second compound 0.1 µM, first compound 0.000316 µM): 122%; viability, T/C (second compound 0.1 µM, first compound 0.001 µM): 120%; viability, T/C (second compound 0.1 µM, first compound 0.00316 µM): 120%; viability, T/C (second compound 0.1 µM, first compound 0.01 µM): 117%; viability, T/C (second compound 0.316 µM, first compound 0.000316 µM): 117%; viability, T/C (second compound 0.316 µM, first compound 0.001 µM): 119%; viability, T/C (second compound 0.316 µM, first compound 0.00316 µM): 110%; viability, T/C (second compound 0.316 µM, first compound 0.01 µM): 116%; viability, T/C (second compound 1 µM, first compound 0.000316 µM): 112%; viability, T/C (second compound 1 µM, first compound 0.001 µM): 111%; viability, T/C (second compound 1 µM, first compound 0.00316 µM): 118%; viability, T/C (second compound 1 µM, first compound 0.01 µM): 99.7%; viability, T/C (second compound 3.16 µM, first compound 0.000316 µM): 76.6%; viability, T/C (second compound 3.16 µM, first compound 0.001 µM): 77.5%; viability, T/C (second compound 3.16 µM, first compound 0.00316 µM): 78.7%; viability, T/C (second compound 3.16 µM, first compound 0.01 µM): 75.8%; viability, T/C (second compound 10 µM, first compound 0.000316 µM): 19.2%; viability, T/C (second compound 10 µM, first compound 0.001 µM): 19.2%; viability, T/C (second compound 10 µM, first compound 0.00316 µM): 18.9%; viability, T/C (second compound 10 µM, first compound 0.01 µM): 17.7%
NS(=O)(=O)OCC1CC(n2ccc3c(NC4CCc5ccccc54)ncnc32)CC1O (stereo not given) + Cc1cncc(-c2nc(NCCc3c[nH]c4ccccc34)c3ncn(C(C)C)c3n2)c1 | 639 | 649 | 581 | 306 | < 31.6 | 96.8 | 84.5 | 74.8 | 35 | 10.5 | 5.21 | 100 | 82.9 | 75.8 | 103 | 83.6 | 71.9 | 66 | 6.13 | 6.79 | viability, T/C [10]: 36%; viability, T/C [11]: 8.3%; viability, T/C [12]: 4.21%; viability, T/C [15]: 74.2%; viability, T/C [16]: 30.7%; viability, T/C [17]: 8.16%; viability, T/C [18]: 5.53%; viability, T/C [21]: 50.1%; viability, T/C [22]: 16.5%; viability, T/C [23]: 3.65%; viability, T/C [24]: 2.28%; viability, T/C [27]: 1.4%; viability, T/C [28]: 1.01%; viability, T/C [29]: 0.49%; viability, T/C [30]: 0.45%
